Here are results for four compounds from US12616750B2, “Combination therapy utilizing DNA alkylating agents and ATR inhibitors” (Merck Patent GmbH, priority 2018, dated 2026).

Read-outs that look alike come from different tables or passages of the source.

In series [1] the test system is HCC-1954 cells. Kind of series: Cytotoxicity (cell viability, CellTiter-Glo, 6 d). It counts as cell-based. As to conditions: Homo sapiens, HCC1954, HCC-1954. The protocol: (§1) Dose-matrix combination assays were performed as described above, but performed in opague 384-well plates (2k viable cells/well). Compounds were added using Tecan D300e liquid. Protein solutions were supplemented with 0.3% Tween-20 (final) and diluted to 1 μM. All wells were normalized to the maximum amount of DMSO (maximum 0.4%) or Tween-20 added. […] Luminescence values were normalized to luminescence of non-treated cells and dose-response was fitted using Smart Fit. Synergy scores were calculated using LOEWE synergy model.
After 6 d of treatment, CellTiter-Glo luminescent assay was performed and the luminescence was read on Envision Reader. The results were analyzed using GeneData Screener as described before.
(In general: ATP-based viability assays read luminescence as a measure of living cells.)

The next series deals with A549 cells. Put plainly: Dose-matrix combination assay (synergy score, Loewe model). It counts as cell-based. As to conditions: combination with AZD6738; A549 (EGFR-positive), 6 d. The protocol:
(§2) Dose-matrix combination assays were performed as described above, but performed in opague 384-well plates (2k viable cells/well). Compounds were added using Tecan D300e liquid. Protein solutions were supplemented with 0.3% Tween-20 (final) and diluted to 1 μM. All wells were normalized to the maximum amount of DMSO (maximum 0.4%) or Tween-20 added. Read out of luminescence was performed on Envision 2104 Multilabel Reader (Perkin Elmer) and data were evaluated using Genedata Screener® version 14.0.6-Standard (Genedata AG). Luminescence values were normalized to luminescence of non-treated cells and dose-response was fitted using Smart Fit. Synergy scores were calculated using LOEWE synergy model.
(§3) The screening of synergistic drug combinations can be accomplished by performing a dose-matrix assay. Therefore, two drugs are serial diluted and mixed at every dose level, yielding a dose-matrix. The drug combination can be additive if the effects of the combination are identical to the added effects of the single agents. However, the effects of the combination might also be stronger than the activity of the single agents. This scenario is termed synergy, whereas weaker combination effects compared to the single agents are termed antagonism. A dose-matrix assay is depicted schematically in FIG. 2 which illustrates the outcomes of a dose-matrix assay: additivity, antagonism and synergy.

For series [2], the system named is HCC-1954 cells. The description is as above. It counts as cell-based. As to the method: as §1, §3
(§4) The screening was conducted by serial diluting the duocarmycin derivative DUBA (10) and the DDR inhibitors. […] DUBA was combined in a dose-matrix assay with hycanthone. The cell viability was measured after 6 d of treatment using the CellTiter-Glo assay kit. The signals of the cell viability assay were normalized to untreated cells and fitted. […] By subtracting the modeled data from the fitted data, an excess matrix was generated. The excess matrix can be considered as a visualization of the differences between model and actual data which also highlights spots of either high synergy or antagonism. The quantification of the combination effects, however, was performed by calculating synergy scores. […] Besides synergy score, the potency of the drugs in monotherapy was obtained from these experiments. […] The potency was obtained from this dose-response curve.
(§5) The scattering of S was determined in a sham control experiment to define a cutoff for classifying a combination as truly synergistic or antagonistic. Thus seven different compounds were combined with itself on four different cell lines and the three-σ confidence interval was calculated around the mean of the measurement. […] For the sake of convenience, the cutoff was set to a value of ±1.
(§6) Synergy scores (S) were obtained from the combination experiments that indicated additivity […] if model and actual response were equal. […] The magnitude of the score determined the extent of the combination effects.

The test system of another series is MCF7 cells. Put plainly: Cytotoxicity (cell viability). It counts as cell-based. As to conditions: Homo sapiens; MCF7 (EGFR −, MET −), Table 10. The protocol:
(§7) Curve-shift assays were conducted as follows: The cell number and viability was determined using ViCell™-XR (Beckman Coulter) and seeded in opague 96-well plate (10k viable cells/well). After seeding, the plate was incubated (37° C., 5% C02) in a humid chamber overnight. Compounds were diluted in the appropriate medium, added to the cells and the plate was incubated (37° C., 5% CO2, 6 d) in a humid chamber. After 30 min equilibration at room temperature, CellTiter-Glo reagent (Promega) was added. After the plate was shaken (3 min, 550 rpm, rt) it was incubated (10 min, rt) and luminescence was read on a synergy 4 plate reader (BioTek). Evaluation was performed using GraphPad Prism version 6.05. Therefor luminescence values were normalized to luminescence values of non-treated cells and dose-response was fitted with 4-point logistic fit.
as §2

In series [3] the test system is MDA-MB-468 cells. Kind of series: Cytotoxicity (cell viability, CellTiter-Glo, 6 d). It counts as cell-based. As to conditions: Homo sapiens, MDA-MB-468; read-out: IC50.
The target in another series is T1, NEK1 (Homo sapiens, UniProt Q96PY6).
T1 sequence (Q96PY6 1-1258): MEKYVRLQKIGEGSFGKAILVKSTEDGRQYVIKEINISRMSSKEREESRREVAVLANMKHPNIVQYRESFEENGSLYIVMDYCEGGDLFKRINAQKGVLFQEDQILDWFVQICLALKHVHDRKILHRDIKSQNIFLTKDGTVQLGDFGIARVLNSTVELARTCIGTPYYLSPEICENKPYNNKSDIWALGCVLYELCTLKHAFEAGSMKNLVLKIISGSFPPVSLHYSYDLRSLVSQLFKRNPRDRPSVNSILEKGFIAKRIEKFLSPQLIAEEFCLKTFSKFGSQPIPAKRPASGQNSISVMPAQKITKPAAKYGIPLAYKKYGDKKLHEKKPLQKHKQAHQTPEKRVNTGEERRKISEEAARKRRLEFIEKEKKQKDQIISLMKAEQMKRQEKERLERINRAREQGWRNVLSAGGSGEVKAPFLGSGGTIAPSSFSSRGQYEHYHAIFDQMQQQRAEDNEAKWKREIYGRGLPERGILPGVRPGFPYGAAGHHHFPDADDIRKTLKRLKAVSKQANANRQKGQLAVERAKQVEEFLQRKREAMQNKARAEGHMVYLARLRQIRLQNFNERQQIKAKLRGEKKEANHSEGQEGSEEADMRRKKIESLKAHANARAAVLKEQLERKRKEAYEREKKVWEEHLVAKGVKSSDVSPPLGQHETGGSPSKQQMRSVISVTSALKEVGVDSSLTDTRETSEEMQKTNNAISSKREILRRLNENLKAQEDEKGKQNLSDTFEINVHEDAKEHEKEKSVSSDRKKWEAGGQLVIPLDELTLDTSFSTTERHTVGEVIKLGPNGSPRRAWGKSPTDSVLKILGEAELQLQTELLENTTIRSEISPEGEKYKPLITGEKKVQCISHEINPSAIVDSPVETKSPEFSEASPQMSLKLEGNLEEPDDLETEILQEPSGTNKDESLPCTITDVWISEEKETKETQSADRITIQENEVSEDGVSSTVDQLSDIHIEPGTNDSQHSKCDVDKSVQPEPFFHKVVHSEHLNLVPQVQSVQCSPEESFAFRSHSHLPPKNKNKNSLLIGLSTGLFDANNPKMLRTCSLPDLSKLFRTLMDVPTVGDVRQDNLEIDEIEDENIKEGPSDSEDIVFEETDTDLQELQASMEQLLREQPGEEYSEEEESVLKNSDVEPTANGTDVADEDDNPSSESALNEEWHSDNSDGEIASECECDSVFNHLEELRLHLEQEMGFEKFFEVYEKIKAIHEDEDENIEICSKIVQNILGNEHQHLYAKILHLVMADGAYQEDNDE
Conditions: cited from earlier work.

In series [4] the test system is MDA-MB-468 cells. Kind of series: Dose-matrix combination assay (synergy score, Loewe model). Conditions: combination with DUBA; MDA-MB-468, 6 d; S ± SD; cutoff ±1. It counts as cell-based. The protocol:
as §1, §3, §4, §5, §6

The next series deals with MDA-MB-453 cells. Put plainly: MNED curve-shift assay. It counts as cell-based.
Source text: (§8) Therefore a curve-shift assay system was established. In a first step, a dose-response curve (DRC) is obtained by treating a certain cell line with an inhibitor. The maximum non-efficacious dose (MNED) can be derived from this DRC. MNED is the highest dose, that can be added to a certain cell line without affecting the viability. The activity of the ADC is confirmed in a separate experiment. Finally, a combination experiment can be conducted. Therefore, the ADC and ADC plus inhibitor at MNED are added to the cells. The inhibitor is tested in parallel at MNED as a control. Due to the application of inhibitor at MNED, no reduction in cell viability caused by the inhibitor is expected. Three outcomes are possible: 1) The combination of ADC plus inhibitor is equipotent as the ADC only. […] Such a result would be interpreted as depotentiation. […] In this case, the potency of the ADC is potentiated.
(§9) Potentiation effects are expressed as dose-reduction indices (DRI), which can be calculated by dividing the IC50-value of ADC by the IC50-value of ADC plus inhibitor according to eq. 1
as §7
(§10) The determination of dose-reduction indices (DRI) in a maximum non-efficacious dose (MNED) curve-shift assay is a 3-step process as depicted exemplarily in FIG. 13. The cytotoxicity of the ADC is confirmed in a cell viability assay in an initial step. […] In the second step. the MNED of the ATRi was determined. […] In order to obtain a full […] for the combination, the starting concentration of the ADC was lowered compared to the experiment in step 1.

Series [5] deals with MDA-MB-468 cells. Kind of series: MNED curve-shift assay. It counts as cell-based.
Source text: as §8, §9, §7, §10

In the next series the test system is Calu-3 cells. Kind of series: MNED curve-shift assay. It counts as cell-based.
Source text: as §8, §9, §7, §10

The test system of the next series is SK-BR-3 cells. Put plainly: MNED curve-shift assay. It counts as cell-based.
Source text: as §8, §9, §7, §10

A further series concerns JIMT-1 cells. Kind of series: MNED curve-shift assay. It counts as cell-based.
Source text: as §8, §9, §7, §10

The subject of series [6] is HCC-1954 cells. Kind of series: MNED curve-shift assay. It counts as cell-based. Conditions: HCC-1954.
Source text: as §8, §9, §7, §10

The test system of another series is SK-OV-3 cells. Put plainly: MNED curve-shift assay. It counts as cell-based.
Source text: as §8, §9, §7, §10

For a further series, the system named is BT-474 cells. Kind of series: MNED curve-shift assay. It counts as cell-based.
Source text: as §8, §9, §7, §10

The conditions of series [7]: evaluated in vivo; cited from earlier work.
The mark [8] stands for this setting: combination with DUBA, HCC-1954, 6 d, S ± SD, cutoff ±1.

The term IC50 denotes the point on the concentration scale where inhibition reaches its midpoint. As for `COC(=O)c1cc2c3c(cc(O)c2[nH]1)N(C(=O)c1cc2cc(OC)c(OC)c(OC)c2[nH]1)C[C@H]3CCl` [compound 13], the IC50 in the series with HCC-1954 cells [1] (duocarmycin variant alone, mean ± SD or mean (individual values), read-out: IC50) was determined as 0.3 ± 0.1 nM; with MCF7 cells it was 0.06 ± 0.02 nM; with MDA-MB-468 cells [3] it was 0.14 ± 0.07 nM. For the same compound, the “Synergy score S” value in the series with A549 cells was “additive effects”; in the series on HCC-1954 cells [2] (combination with AZD6738, HCC-1954, 6 d), 4.1 ± 0.4; with HCC-1954 cells [2] (combination with AZD6738, HCC-1954, 6 d, listed as DSA (13)), 4.1±0.4.

With `COc1cc(-c2cnc(N)c(N3CC[C@@H](C(=O)O)[C@@H](C)[C@H]3C)n2)cc(OC)c1OC` [Cmpd31], the “potency of NEK1 inhibition” value at NEK1 was 170 nM. For the same compound, the “Synergy score S” value in the series on MDA-MB-468 cells [4] was determined as 0.4±0.2; with HCC-1954 cells [2] (setting [8]), 0.3±0.1.

As to `CNCc1ccc(-c2cc(-c3nc(-c4ccc(S(=O)(=O)C(C)C)cc4)cnc3N)on2)cc1` [VE-822], the half-maximal inhibitory concentration (IC50) in the series with HCC-1954 cells [1] (ATRi alone, mean ± SD, read-out: Cytotoxicity IC50) worked out at 900 ± 400 nM. Moreover, the “Synergy score S” value was found to be 5.7±0.3 in the series on HCC-1954 cells [2] (combination with ADC αHER2-2, HCC-1954) and 5.3±0.6 in the series with HCC-1954 cells [2] (setting [8]). The “MNED (maximum non-efficacious dose)” value in the series with MDA-MB-453 cells stood at 40 nM; with MDA-MB-468 cells [5], 300 nM; with Calu-3 cells, 80 nM; in the series with SK-BR-3 cells, 125 nM; in the series on JIMT-1 cells, 80 nM; with HCC-1954 cells [6], 250 nM. In addition, the “MNED (maximum non-efficacious dose)” value came out at 125 nM in the series with SK-OV-3 cells and 1000 nM in the series with BT-474 cells.

As for `COc1c(O)c2c(c3cc(C(=O)N4CCc5c4c(O)c(OC)c4[nH]c(C(=O)N6CC7CC78C6=CC(=O)c6[nH]cc(C)c68)cc54)[nH]c13)CCN2C(N)=O` (stereo not shown) [CC-1065], in [7], the antitumor activity entry is listed as “moderate antitumor activity” and the toxicity entry was “hepatic toxicity limited its effectiveness”.
